The source of these data is US20250215030A1, “STAT MODULATORS AND USES THEREOF” (Recludix Pharma, Inc., priority 2022, published 2025).

One test addresses T1, pSTAT3 (pY705-STAT3) (Homo sapiens, UniProt P40763).
T1 construct: host or cells: cryopreserved PBMC
The experiment in a line: MSD-pSTAT-PBMC Assay (pSTAT3, IL-6 stimulated). In kind it is cell-based. Particulars: PBMC, compound 3 hrs, then 10 ng/mL IL-6 for 10 min; MSD pY705-STAT3; read-out: pSTAT3. In a few lines: (§1)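 Human PBMCs (50,000 cells/well for STAT3, 25,000 for STAT6) treated with compound 3 h, then stimulated 10 min with 10 ng/mL IL-6 or 1 ng/mL IL-4. Lysate pSTAT3 (pY705) or pSTAT6 (pY641) measured by MSD sandwich electrochemiluminescence. Signal minus unstimulated, normalized to DMSO; IC50 by variable-slope nonlinear regression.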

For another test, the target named is T2, pSTAT6 (pY641-STAT6) (Homo sapiens, UniProt P42226).
T2 construct: host or cells: cryopreserved PBMC
T2 sequence (P42226 1-847): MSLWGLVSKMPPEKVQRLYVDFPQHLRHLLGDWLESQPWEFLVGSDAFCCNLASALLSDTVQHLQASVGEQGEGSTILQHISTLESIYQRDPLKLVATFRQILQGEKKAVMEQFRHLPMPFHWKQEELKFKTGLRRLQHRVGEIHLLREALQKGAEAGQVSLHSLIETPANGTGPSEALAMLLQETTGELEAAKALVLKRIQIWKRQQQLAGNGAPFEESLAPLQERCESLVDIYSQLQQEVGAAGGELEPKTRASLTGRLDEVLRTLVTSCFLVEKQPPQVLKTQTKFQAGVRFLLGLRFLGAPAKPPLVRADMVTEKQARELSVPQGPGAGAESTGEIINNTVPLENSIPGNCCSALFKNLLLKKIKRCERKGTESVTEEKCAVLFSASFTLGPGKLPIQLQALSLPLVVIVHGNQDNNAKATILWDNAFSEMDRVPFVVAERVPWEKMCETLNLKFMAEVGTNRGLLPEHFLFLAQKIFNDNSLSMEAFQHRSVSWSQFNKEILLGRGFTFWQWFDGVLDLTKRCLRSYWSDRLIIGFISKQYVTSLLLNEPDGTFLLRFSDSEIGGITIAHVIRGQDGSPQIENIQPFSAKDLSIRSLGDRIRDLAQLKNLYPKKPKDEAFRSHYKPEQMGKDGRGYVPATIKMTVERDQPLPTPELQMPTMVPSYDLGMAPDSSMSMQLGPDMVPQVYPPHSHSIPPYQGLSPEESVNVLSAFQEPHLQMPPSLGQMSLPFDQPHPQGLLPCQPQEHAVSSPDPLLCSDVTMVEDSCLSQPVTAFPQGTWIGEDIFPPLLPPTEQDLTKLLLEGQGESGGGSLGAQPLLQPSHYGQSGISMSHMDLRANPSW
The experiment in a line: MSD-pSTAT-PBMC Assay (pSTAT6, IL-4 stimulated). Type of test: cell-based. As to conditions: compound 3 hrs, then 1 ng/mL IL-4 for 10 min. In short, it runs like this:
as §1

pIC50: −log10 of the molar value.

T1 sequence (P40763 whole entry): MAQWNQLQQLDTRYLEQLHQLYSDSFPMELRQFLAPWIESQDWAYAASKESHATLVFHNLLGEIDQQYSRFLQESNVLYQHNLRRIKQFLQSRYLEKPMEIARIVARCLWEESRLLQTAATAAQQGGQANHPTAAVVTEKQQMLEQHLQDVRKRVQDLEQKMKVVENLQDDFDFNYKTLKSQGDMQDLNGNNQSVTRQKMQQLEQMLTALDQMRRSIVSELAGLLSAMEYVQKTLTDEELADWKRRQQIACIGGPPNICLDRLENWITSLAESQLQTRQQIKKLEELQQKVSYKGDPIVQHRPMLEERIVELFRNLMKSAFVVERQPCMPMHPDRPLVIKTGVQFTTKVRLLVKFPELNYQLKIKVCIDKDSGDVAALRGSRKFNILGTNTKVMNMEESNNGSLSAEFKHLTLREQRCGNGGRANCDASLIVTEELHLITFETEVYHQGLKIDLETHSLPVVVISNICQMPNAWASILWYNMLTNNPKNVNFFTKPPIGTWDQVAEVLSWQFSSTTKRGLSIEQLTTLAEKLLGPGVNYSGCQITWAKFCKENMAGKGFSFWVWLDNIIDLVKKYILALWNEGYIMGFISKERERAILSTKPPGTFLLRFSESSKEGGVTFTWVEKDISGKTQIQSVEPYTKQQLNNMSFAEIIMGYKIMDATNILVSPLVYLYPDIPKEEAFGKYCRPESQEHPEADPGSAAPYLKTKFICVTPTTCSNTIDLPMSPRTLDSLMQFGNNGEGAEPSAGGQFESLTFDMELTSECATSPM

As for `CC(C)CC(=O)SCCOP(=O)(OCCSC(=O)CC(C)C)C(F)(F)c1ccc2sc(C(=O)N[C@H]3C[C@H]4C[C@H]4C[C@H]4CC[C@@H](C(=O)N5CC(c6ncccn6)C5)N4C3=O)cc2c1` [Compound 225, S,S′-((((difluoro(2-(((3S,6S,7aR, 8aS,9aR)-5-oxo-3-(3-(pyrimidin-2-yl)azetidine-1-carbonyl)decahydro-1H-cyclopropa[d]pyrrolo[1,2-a]azocin-6-yl)carbamoyl)benzo[b]thiophen-5-yl)methyl)phosphoryl)bis(oxy))bis(ethane-2,1-diyl)) bis(3-methylbutane thioate)], the pIC50 was above 7.00 at pSTAT3 (pY705-STAT3) and 5.52 to 6.00 on pSTAT6 (pY641-STAT6).

Turning to `CC(C)(C)C(=O)SCCOP(=O)(OCCSC(=O)C(C)(C)C)C(F)(F)c1ccc2sc(C(=O)N[C@H]3C[C@@H]4C[C@@H]4C[C@H]4CC[C@@H](C(=O)N5CC(F)(c6ccccc6)C5)N4C3=O)cc2c1` [Compound 228, S,S′-((((difluoro(2-(((3S,6S,7aS, 8aR,9aR)-3-(3-fluoro-3-phenylazetidine-1-carbonyl)-5-oxodecahydro-1H-cyclopropa[d]pyrrolo[1,2-a]azocin-6-yl)carbamoyl)benzo[b]thiophen-5-yl)methyl)phosphoryl)bis(oxy))bis(ethane-2,1-diyl)) bis(2,2-dimethyl-propanethioate)], the figures for the pIC50 at pSTAT3 (pY705-STAT3) and on pSTAT6 (pY641-STAT6) were 6.00 to 7.00 and below 5.52, respectively.

In the case of `CC(C)OC(=O)CNP(=O)(Oc1ccccc1)C(F)(F)c1ccc2sc(C(=O)N[C@H]3C[C@@H]4C[C@@H]4C[C@H]4CC[C@@H](C(=O)N5CC(C(=O)N6CCOCC6)C5)N4C3=O)cc2c1` (stereo partly drawn) [Example 2, isopropyl ((difluoro(2-(((3S,6S,7aS,8aR,9aR)-3-(3-(morpholine-4-carbonyl)azetidine-1-carbonyl)-5-oxodecahydro-1H-cyclopropa[d]pyrrolo[1,2-a]azocin-6-yl)carbamoyl)benzo[b]thiophen-5-yl)methyl)(phenoxy)phosphoryl)glycinate], the pIC50 at pSTAT3 (pY705-STAT3) and at pSTAT6 (pY641-STAT6) was below 5.52 each time.

In the case of `CCCCC(=O)OCOP(=O)(OCOC(=O)CCCC)C(F)(F)c1ccc2sc(C(=O)N[C@H]3C[C@@H]4C[C@@H]4C[C@H]4CC[C@@H](C(=O)N5CC(C(=O)N6CCOCC6)C5)N4C3=O)cc2c1` [Example 4, (((difluoro(2-(((3S,6S,7aS,8aR,9aR)-3-(3-(morpholine-4-carbonyl)azetidine-1-carbonyl)-5-oxodecahydro-1H-cyclopropa[d]pyrrolo[1,2-a]azocin-6-yl)carbamoyl)benzo[b]thiophen-5-yl)methyl)phosphoryl)bis(oxy))bis(methylene) dipentanoate], the pIC50 on pSTAT3 (pY705-STAT3) is above 7.00; against pSTAT6 (pY641-STAT6), below 5.52.
